# Test system: bovine serum albumin (BSA) antigen
# Test: Immunization, humoral response by ELISA
# Type: in vivo, mice
# Details: for Antibody titres (A410 nm): 12.5 μg BSA i.p. at days 0 and 14, sera diluted by a factor of 400
# Description: For in vivo studies with archaeosomes (prepared from the TPL, or a lipid obtained in a biologically pure form from the indicated archaeobacterium) and conventional liposomes (prepared from DMPC:DMPG at 1.8:0.2 molar ratio, or DMPC:DMPG:CHOL at 1.8:0.2:1.5 molar ratio, or DMPC:DCP:CHOL at 7:1:2 molar ratio) containing entrapped antigen, the vesicles were prepared by pressure extrusion (at room temperature for archaeobacterial and at 35° C. for DMPC-containing lipids, using 400 nm pore size filters). About 20 mg dry weight of the dried lipid(s) was hydrated in 1 ml PBS containing either BSA (5 mg/ml), Cholera B toxin subunit (0.5 mg/ml), or O-chain polysaccharide (18 mg/ml). To entrap BSA in DSPC:DCP:CHOL (4:1:5, molar ratio), in DSPC:DCP:CHOL:CoQ10 (3:1:4:2, molar ratio), and M. mazei TPL:CoQ10 (8:2, molar ratio), the vesicles were prepared by the REV (at 55° C.)-sonication method described above. The BSA was encapsulated in these vesicles by the DRV method as described by New (13). The antigen that was not entrapped/associated with the vesicles was removed by centrifugation and washing as described for peroxidase-vesicles.
# The immunization strategies were similar for each of the different experiments. For each experiment, details of the amounts and types of antigen/adjuvant injected, and the time intervals between injections is described in the appropriate figure legends. Freund's adjuvant (FA) encompasses Freund's complete adjuvant (CFA) and Freund's incomplete adjuvant (IFA) used at 62.5% strength in PBS. For each antigen/adjuvant preparation three mice were injected (unless indicated otherwise) i.p., i.m., or s.c. with antigens encapsulated in archaeosomes or liposomes (diluted in sterile PBS, pH 7.1), antigens emulsified in CFA, or with antigens diluted in PBS alone (final volume, 0.2 ml/mouse). For the second immunization, mice were injected with antigens encapsulated in archaeosomes or liposomes, or emulsified in IFA, or diluted in PBS. For experiments where a third or fourth injection was required, antigens were injected either encapsulated in the respective vesicle type or as bare antigen diluted in PBS. Mice were 6-8 weeks of age at the time of the first immunization.
# Mice were bled from the tail veins usually four days after each injection. The blood was allowed to dot, and cells removed from the serum by centrifuging in serum separator tubes.
# The humoral response was measured by the indirect enzyme-linked immunosorbent assay (ELISA) using a variety of solid-phase adsorbed antigens. BSA, Cholera B toxin subunit, or E. coli 0:157:H7 lipopolysaccharide was diluted in distilled water (15 μg/ml final concentration) and 100 μl/well was dried (overnight incubation at 37° C.) to coat the ELISA microplate wells. All indirect ELISA assays were performed using standard methods. Dilutions of antibody-containing sera were used as the first antibody and a 1/1500 dilution of HRP-conjugated goat anti-mouse IgG+IgM as the detection antibody.
# The isotypes of anti-BSA antibodies raised in mouse sera were assayed by an ELISA method. Wells were coated with BSA (as above). Dilutions of each serum were titred with peroxidase-coupled sheep anti-mouse IgG1, IgG2a, IgG2b, IgG3, and IgM. All ELISA data are reported as the means ± sample standard deviations.
substance,measurement,setting,value
"Bare BSA: bovine serum albumin antigen alone in PBS, without adjuvant or vesicle",Antibody titres (A410 nm),Day 25,0.064 ± 0.001 A410 nm
same,Antibody titres (A410 nm),Day 35,0.082 ± 0.007 A410 nm
same,Antibody titres (A410 nm),Day 55,0.075 ± 0.008 A410 nm
same,Antibody titre (A410 nm),"i.m., 12.5 μg antigen alone in PBS, sera diluted 400-fold",0.063 ± 0.003 A410 nm
same,Immune response (Relative %),"i.p., 12.5 μg BSA, days 0 and 14, blood day 20, IgG + IgM, archaeobacterial lipids none",6.9 ± 0.3 Relative %
same,Antibody titre (A410 nm),"i.p., 25 μg antigen alone in PBS, no carrier/adjuvant, sera diluted 400 fold",0.137 ± 0.002 A410 nm
same,Anti-BSA antibody Concentration,"i.p., antigen alone in PBS, undiluted sera",10.5 µg/mL
